Reference: patent publication US20230416712A1, “APPLICATION OF SUBSTANCE THAT REDUCES THE CONTENT OR ACTIVITY OF KAT7 IN PREVENTING SENESCENCE AND TREATING HEPATIC FIBROSIS” (INSTITUTE OF ZOOLOGY, CHINESE ACADEMY OF SCIENCES, priority 2020, published 2023)

What was measured:
[1] = system: Human primary hepatocytes (hHEPs); assay: Senescence of human primary hepatocytes treated with KAT7 inhibitor; assay type: cell-based; settings: 100 nM
Procedure: Human primary hepatocytes (hHEPs) were used as test cells (a product of Lonza, with an article No. of HUCPI), and the cells were treated with a DMSO solution of 100 nM of WM-3835, and DMSO was used as a control.

[2] = system: WS mesenchymal precursor cells (WS hMPCs); assay: Senescence of WS hMPCs treated with KAT7 inhibitor; assay type: cell-based, human; settings: 50 nM; passages 2-3 after treatment; DMSO control; FIGS. 6C-6D
Procedure: Passage-4 WS mesenchymal precursor cells (WS hMPCs) in example 1 were used as test cells, and the cells were treated with a DMSO solution of 50 nM of WM-3835. The WM-3835 (with a structural formula as shown in a of FIGS. 6A-6I) was synthesized by entrusting WuXi AppTec, and a DMSO solvent was used as a control.
After the treatment, the cells were continuously passaged to passages 2-3. The cells were collected to detect a KAT7 protein knockdown efficiency (FIG. 6B), and SA-β-gal staining of cell senescence markers and detection of a cell proliferation molecular marker (Ki67) were performed.

Cc1cc(-c2ccccc2)cc(C(=O)NNS(=O)(=O)c2cccc(O)c2)c1F [WM-3835]
expressions of inflammatory genes and SASP-associated genes (RNA-seq) ([1]; FIGS. 6E-6I): down-regulated
expressions of metabolism-related genes (RNA-seq) ([1]; FIGS. 6E-6I): up-regulated
senescence of hepatocytes (P15, IL6 by RT-qPCR) ([1]; cultured 8 d, compared with DMSO group): significantly delay the senescence of hepatocytes
senescence of WS hMPCs (SA-β-gal staining, Ki67) [2]: can delay the senescence of WS hMPCs
